Where a SMILES comes first, the peptide text is derived from it. The star is where a group is joined. FITC = O=C1OC2(c3ccc(O)cc3Oc3cc(O)ccc32)c2ccc(NC(=S)*)cc21
Columns and labels:
[1] = target: T1, amylin receptor 1 ECD with calcitonin receptor D101A mutation (Homo sapiens, UniProt O60894+P30988, D101A); assay: FP saturation binding, D101A; conditions: for Average fluorescence intensity change upon receptor ECD binding: % of a free probe intensity, Mean ± S.D., max receptor 1 μM; for effect of mutation on binding affinity: in words
T1 construct: pHLsec/hRAMP1.24–111-(GSA)3-hCTR.34–141.D101A-H6 (D-pJJ003); H6 (hexahistidine) (C); made in house; host or cells: HEK293 (transient transfection, secreted, N-glycosylated)
Excerpt: (§1) pHLsec-based vectors were used to express wild-type and mutated amylin receptor 1 extracellular domains as secreted proteins to cell culture media. The plasmid DNA construct of the wild-type amylin receptor 1 extracellular domain, pHLsec/hRAMP1.24–111-(GSA)3-hCTR.34–141-H6 (H-pSL005) was previously described. The following DNA vector plasmids were made for this study: pHLsec/hRAMP1.24–111-(GSA)3-hCTR.34–141.D97A-H6 (D-pSL009), pHLsec/hRAMP1.24–111-(GSA)3-hCTR.34–141.D97E-H6 (D-pJS001), pHLsec/hRAMP1.24–111-(GSA)3-hCTR.34–141.D101A-H6 (D-pJJ003), pHLsec/hRAMP1.24–111-(GSA)3-hCTR.34–141.D101E-H6 (D-pJJ002), pHLsec/hRAMP1.24–111-(GSA)3-hCTR.34–141.E123A-H6 (D-pJJ004), pHLsec/hRAMP1.24–111-(GSA)3-hCTR.34–141.E123D-H6 (D-pJJ001), pHLsec/hRAMP1.24–111-(GSA)3-hCTR.34–141.N124A-H6 (D-pJS005), pHLsec/hRAMP1.24–111-(GSA)3-hCTR.34–141.N124D-H6 (D-pJS006), pHLsec/hRAMP1.24–111-(GSA)3-hCTR.34–141.N135A-H6 (D-pJW001), and pHLsec/hRAMP1.24–111-(GSA)3-hCTR.34–141.N135D-H6 (D-pJS002). The mutations were introduced to the calcitonin receptor extracellular domain by using DNA Assembly reaction. Coding sequences of the receptor expression vectors were confirmed with Sanger sequencing by Bionics (Seoul, Republic of Korea). DNA plasmid vectors were extracted and were purified from bacterial cells with NucleoBond® Extra Midi Plus kit (Macherey-Nagel, Germany). The purified DNA vectors were stored at −20 °C until their use for mammalian cell transfection.
(§2) The overall experimental procedure of reconstituting the functional amylin receptor 1 extracellular domain (ECD) as the fusion protein of RAMP1 ECD and the calcitonin receptor ECD was previously described. The wild-type and mutated amylin receptor 1 ECDs were expressed from HEK293 cells with transient transfection with polyethylenimine. The expressed receptor proteins were secreted to cell culture media for 4 days at 37 °C. The media were collected for the receptor protein purification. Initial dialysis was performed with the dialysis buffer (Tris 25 mM (pH 7.4), NaCl 150 mM, and imidazole 10 mM) overnight. […] Then, a size exclusion column chromatography (SEC) was performed with SEC column (Cytiva, HiLoad® 16/600 Superdex® 200 pg) and SEC buffer (Tris 50 mM (pH 7.4), NaCl 150 mM, and glycerol (v/v) 10%) as previously described. As the final step, the purified receptor proteins were dialyzed to storage buffer (HEPES 25 mM (pH 7.4), NaCl 150 mM, and glycerol (v/v) 50 %) and were stored at −60 °C until their use for the receptor–ligand binding assay. […]
(§3) The overall procedure of the FP binding assay with a saturation binding format was previously described. […] FITC-labeled peptide probes were incubated for 1 h at room temperature with the purified receptor protein prior to fluorescence signal measurement. […]

[2] = target: T2, amylin receptor 1 ECD with calcitonin receptor D101E mutation (Homo sapiens, UniProt O60894+P30988, D101E); assay: FP saturation binding, D101E; conditions: for Average fluorescence intensity change upon receptor ECD binding: % of a free probe intensity, Mean ± S.D., max receptor 3 μM (sCT), 1 μM (AC413)
T2 construct: pHLsec/hRAMP1.24–111-(GSA)3-hCTR.34–141.D101E-H6 (D-pJJ002); H6 (hexahistidine) (C); made in house; host or cells: HEK293 (transient transfection, secreted, N-glycosylated)
Excerpt: as §1
The overall experimental procedure of reconstituting the functional amylin receptor 1 extracellular domain (ECD) as the fusion protein of RAMP1 ECD and the calcitonin receptor ECD was previously described. The wild-type and mutated amylin receptor 1 ECDs were expressed from HEK293 cells with transient transfection with polyethylenimine. […]
as §3

[3] = target: T3, amylin receptor 1 ECD with calcitonin receptor N135A mutation (Homo sapiens, UniProt O60894+P30988, N135A); assay: FP saturation binding, N135A; conditions: for Average fluorescence intensity change upon receptor ECD binding: % of a free probe intensity, Mean ± S.D., max receptor 3 μM (sCT), 1 μM (AC413); for effect of mutation on binding affinity: in words
T3 construct: pHLsec/hRAMP1.24–111-(GSA)3-hCTR.34–141.N135A-H6 (D-pJW001); H6 (hexahistidine) (C); made in house; host or cells: HEK293 (transient transfection, secreted, N-glycosylated)
Excerpt: as §1, §2, §3

[4] = target: T4, amylin receptor 1 ECD with calcitonin receptor E123A mutation (Homo sapiens, UniProt O60894+P30988, E123A); assay: FP saturation binding, E123A; conditions: for Average fluorescence intensity change upon receptor ECD binding: % of a free probe intensity, Mean ± S.D., E123A, max receptor 3 μM (sCT), 1 μM (AC413); for decrease of binding affinity: E123A versus wild-type receptor ECD
T4 construct: pHLsec/hRAMP1.24–111-(GSA)3-hCTR.34–141.E123A-H6 (D-pJJ004); H6 (hexahistidine) (C); made in house; host or cells: HEK293 (transient transfection, secreted, N-glycosylated)
Excerpt: as §1, §2, §3

[5] = target: T5, amylin receptor 1 ECD with calcitonin receptor N124A mutation (Homo sapiens, UniProt O60894+P30988, N124A); assay: FP saturation binding, N124A; conditions: for Average fluorescence intensity change upon receptor ECD binding: % of a free probe intensity, Mean ± S.D., N124A, max receptor 1 μM; for decrease of binding affinity: N124A versus wild-type receptor ECD
T5 construct: pHLsec/hRAMP1.24–111-(GSA)3-hCTR.34–141.N124A-H6 (D-pJS005); H6 (hexahistidine) (C); made in house; host or cells: HEK293 (transient transfection, secreted, N-glycosylated)
Excerpt: as §1, §2, §3

T2 sequence (O60894 24-111): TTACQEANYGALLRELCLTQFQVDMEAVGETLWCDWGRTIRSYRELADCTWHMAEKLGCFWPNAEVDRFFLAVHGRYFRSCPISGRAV
T2 sequence (P30988 34-141 D101E): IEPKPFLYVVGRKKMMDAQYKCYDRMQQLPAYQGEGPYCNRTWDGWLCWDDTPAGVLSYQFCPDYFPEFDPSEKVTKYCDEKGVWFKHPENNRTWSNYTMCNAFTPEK
T5 sequence (O60894 24-111): as the sequence (O60894 24-111) above
T5 sequence (P30988 34-141 N124A): as the sequence (P30988 34-141 D101E) above, with E68D, N91A counted along it
T3 sequence (O60894 24-111): as the sequence (O60894 24-111) above
T3 sequence (P30988 34-141 N135A): as the sequence (P30988 34-141 D101E) above, with E68D, N102A counted along it
T1 sequence (O60894 24-111): as the sequence (O60894 24-111) above
T1 sequence (P30988 34-141 D101A): as the sequence (P30988 34-141 D101E) above, with E68A counted along it
T4 sequence (O60894 24-111): as the sequence (O60894 24-111) above
T4 sequence (P30988 34-141 E123A): as the sequence (P30988 34-141 D101E) above, with E68D, E90A counted along it

Structure (SMILES) | Average fluorescence intensity change upon receptor ECD binding [1] [%] | effect of mutation on binding affinity [1] | Average fluorescence intensity change upon receptor ECD binding [2] [%] | Average fluorescence intensity change upon receptor ECD binding [3] [%] | effect of mutation on binding affinity [3] | Average fluorescence intensity change upon receptor ECD binding [4] [%] | decrease of binding affinity [4] [fold] | Average fluorescence intensity change upon receptor ECD binding [5] [%] | decrease of binding affinity [5] | effect of mutation on binding affinity ([2]; in words)
CC(C)C[C@H](NC(=O)[C@H](CCCNC(=N)N)NC(=O)[C@@H](NC(=O)[C@H](CC(C)C)NC(=O)[C@H](Cc1ccccc1)NC(=O)[C@H](CC(N)=O)NC(=O)[C@H](C)NC(=S)Nc1ccc2c(c1)C(=O)OC21c2ccc(O)cc2Oc2cc(O)ccc21)C(C)C)C(=O)N[C@@H](CCC(N)=O)C(=O)N[C@H](C(=O)N[C@@H](Cc1ccc(O)cc1)C(=O)N1CCC[C@H]1C(=O)N[C@@H](CCCNC(=N)N)C(=O)N[C@H](C(=O)N[C@@H](CC(N)=O)C(=O)N[C@H](C(=O)NCC(=O)N[C@@H](C)C(=O)N[C@@H](CC(N)=O)C(=O)N[C@H](C(=O)N1CCC[C@H]1C(N)=O)[C@@H](C)O)C(C)C)[C@@H](C)O)[C@@H](C)O [FITC-AC413(6–25) Y25P] ({FITC}-ANFLVRLQTYPRTNVGANTP-NH2; C-terminus assumed) | 97 ± 3 | markedly decreased the binding affinity | 99 ± 3 | 87 ± 15 | markedly decreased the binding affinity | 77 ± 13 | 2.3 | 87 ± 2 | 8.2 fold | –
C[C@@H](O)[C@H](NC(=O)[C@H](CC(N)=O)NC(=O)[C@@H](NC(=O)[C@H](CCCNC(=N)N)NC(=O)[C@@H]1CCCN1C(=O)[C@H](Cc1ccc(O)cc1)NC(=S)Nc1ccc2c(c1)C(=O)OC21c2ccc(O)cc2Oc2cc(O)ccc21)[C@@H](C)O)C(=O)NCC(=O)N[C@@H](CO)C(=O)NCC(=O)N[C@H](C(=O)N1CCC[C@H]1C(N)=O)[C@@H](C)O [FITC-sCT(22–32)] ({FITC}-YPRTNTGSGTP-NH2; C-terminus assumed) | 101 ± 4 | markedly decreased the binding affinity | 118 ± 13 | 81 ± 10 | markedly decreased the binding affinity | 72 ± 1 | 4.5 | 85 ± 11 | more than 10 fold | failed to recover the binding affinity

— article PMC12292835, “Amylin Receptor 1 Mutagenesis Revealed a Potential Role of Calcitonin Serine 29 in Receptor Interaction” (Biomedicines, 2025)
